Data published in US11959486B2, “Stable liquid formulation of AMG 416 (etelcalcetide)” (AMGEN INC., priority 2013, dated 2024).

Test: Solution stability in different buffers (acetate, citrate, lactate, succinate), HPLC (Example 5)
Type: physicochemical
Details: all buffers tested
Protocol: In this study, the stability of liquid formulations of AMG 416 was evaluated in four different buffers over 9 days. Buffered saline solutions were prepared at 25 mM concentration, pH 4.5, for four different anionic buffers in the sodium salt form: acetate, citrate, lactate and succinate. […] The solutions were diluted further with pH 4.5 buffer to 1.0 mg/mL and 0.25 mg/mL. Each of the resulting solutions was split to two glass HPLC vials, one stored at 2-8° C. and one at room temperature (about 25° C.). HPLC analysis was conducted at 0, 4 and 9 days for determination of potency and purity.

With `CC(=O)N[C@H](CSSC[C@H](N)C(=O)O)C(=O)N[C@H](C)C(=O)N[C@H](CCCNC(=N)N)C(=O)N[C@H](CCCNC(=N)N)C(=O)N[C@H](CCCNC(=N)N)C(=O)N[C@H](C)C(=O)N[C@H](CCCNC(=N)N)C(N)=O` [AMG 416, N-acetyl-D-cysteinyl-D-alanyl-D-arginyl-D-arginyl-D-arginyl-D-alanyl-D-arginamide disulfide with L-cysteine] the “stability during the 9 day study” value was “good stability”.
